Experimental findings from ChEMBL document CHEMBL4715813, “Allicin-inspired pyridyl disulfides as antimicrobial agents for multidrug-resistant Staphylococcus aureus” (Eur J Med Chem, 2018) are described below.

What all share (assay type): functional
In one assay the test system is Klebsiella pneumoniae. Kind of assay: Antibacterial activity against multidrug-resistant Klebsiella pneumoniae ATCC 700603 assessed as zone of inhibition by disc diffusion method. Also: test concentration or dose not given here. A general note: In agar diffusion tests the substance spreads into inoculated agar from a disc or well.
A further assay relates to Enterobacter cloacae. Kind of assay: Antibacterial activity against Enterobacter cloacae ATCC 23355 assessed as zone of inhibition by disc diffusion method. Also: test concentration or dose not given here.
The test system of the next assay is Escherichia coli. Kind of assay: Antibacterial activity against beta-lactam resistant Escherichia coli BAA 2326 assessed as zone of inhibition by disc diffusion method. Also: test concentration or dose not given here.
Assay [1] deals with Acinetobacter baumannii. Kind of assay: Antibacterial activity against multidrug-resistant Acinetobacter baumannii BAA 1605 assessed as zone of inhibition by disc diffusion method. Also: test concentration or dose not given here.
A further assay has as its system Bacillus anthracis. Kind of assay: Antibacterial activity against Bacillus anthracis Sterne 34F2 assessed as zone of inhibition by disc diffusion method.
The test system of the next assay is Enterococcus faecium. Kind of assay: Antibacterial activity against vancomycin-resistant Enterococcus faecium ATCC 700221 assessed as zone of inhibition by disc diffusion method. Also: test concentration or dose not given here.
The test system of a further assay is Enterococcus faecalis. Kind of assay: Antibacterial activity against vancomycin-susceptible Enterococcus faecalis ATCC 29212 assessed as zone of inhibition by disc diffusion method. Also: test concentration or dose not given here.
Assay [2] has as its system Staphylococcus aureus. Kind of assay: Antibacterial activity against methicillin-susceptible Staphylococcus aureus ATCC 25923 assessed as zone of inhibition by disc diffusion method. Also: test concentration or dose not given here.
Assay [3] deals with Staphylococcus aureus. Kind of assay: Antibacterial activity against community acquired methicillin-resistant Staphylococcus aureus BAA 1747 assessed as zone of inhibition by disc diffusion method. Also: test concentration or dose not given here.
The test system of assay [4] is Staphylococcus aureus. Kind of assay: Antibacterial activity against hospital acquired methicillin-resistant Staphylococcus aureus ATCC 43300 assessed as zone of inhibition by disc diffusion method. Also: test concentration or dose not given here.
Assay [5] concerns Staphylococcus aureus. Kind of assay: Antibacterial activity against heterogeneous vancomycin-intermediate resistant Staphylococcus aureus Mu3 ATCC 700698 assessed as zone of inhibition by disc diffusion method. Also: test concentration or dose not given here.
Assay [6] relates to Staphylococcus aureus. Kind of assay: Antibacterial activity against vancomycin-intermediate resistant Staphylococcus aureus Mu50 ATCC 700699 assessed as zone of inhibition by disc diffusion method. Also: test concentration or dose not given here.
Assay [7] relates to Staphylococcus aureus. Kind of assay: Antibacterial activity against vancomycin-resistant Staphylococcus aureus HIP11714 assessed as zone of inhibition by disc diffusion method. Also: test concentration or dose not given here.
Assay [8] relates to Staphylococcus epidermidis. Kind of assay: Antibacterial activity against Staphylococcus epidermidis ATCC 14990 assessed as zone of inhibition by disc diffusion method. Also: test concentration or dose not given here.
Assay [9] has as its system Acinetobacter baumannii. Kind of assay: Antibacterial activity against Acinetobacter baumannii ATCC 19606 assessed as zone of inhibition by disc diffusion method. Also: test concentration or dose not given here.
Another assay relates to Pseudomonas aeruginosa. Kind of assay: Antibacterial activity against Pseudomonas aeruginosa ATCC 15422 assessed as zone of inhibition by disc diffusion method. Also: test concentration or dose not given here.

For `CCCCCCCCCCSSc1ccccn1`, the “diameter of the inhibition zone (DIZ)” value was 0 mm in the assay with Klebsiella pneumoniae; 0 mm with Enterobacter cloacae; 0 mm with Escherichia coli; 0 mm in the assay with Acinetobacter baumannii [1]; 28 mm in the assay on Bacillus anthracis; 9 mm in the assay with Enterococcus faecium. Further, the “diameter of the inhibition zone (DIZ)” value with Enterococcus faecalis stood at 9 mm; in the assay with Staphylococcus aureus [2], 12 mm; in the assay with Staphylococcus aureus [3] it was 15 mm; with Staphylococcus aureus [4], 14 mm; with Staphylococcus aureus [5] it was 0 mm; with Staphylococcus aureus [6], 11 mm. Also, the “diameter of the inhibition zone (DIZ)” value with Staphylococcus aureus [7] is recorded as 11 mm; in [8], 26 mm; with Acinetobacter baumannii [9], 0 mm; in the assay with Pseudomonas aeruginosa, 0 mm.
Take `c1ccc(SSC2CCCC2)nc1`: the “diameter of the inhibition zone (DIZ)” value in the assay on Klebsiella pneumoniae is reported as 0 mm; with Enterobacter cloacae it was 0 mm; in the assay on Escherichia coli, 0 mm; with Acinetobacter baumannii [1], 0 mm; with Bacillus anthracis, 22 mm; in the assay on Enterococcus faecium, 0 mm. The “diameter of the inhibition zone (DIZ)” value with Enterococcus faecalis was determined as 0 mm; with Staphylococcus aureus [2], 9 mm; with Staphylococcus aureus [3], 16 mm; in the assay on Staphylococcus aureus [4] it was 14 mm; in the assay with Staphylococcus aureus [5], 11 mm; in the assay on Staphylococcus aureus [6], 0 mm. Moreover, the “diameter of the inhibition zone (DIZ)” value came out at 0 mm with Staphylococcus aureus [7], 25 mm in assay [8], 0 mm in the assay on Acinetobacter baumannii [9] and 0 mm in the assay on Pseudomonas aeruginosa.
On to `c1ccc(SSC2CCCCC2)nc1`, for which the “diameter of the inhibition zone (DIZ)” value with Klebsiella pneumoniae stood at 0 mm; with Enterobacter cloacae it was 0 mm; in the assay with Escherichia coli, 0 mm; in the assay with Acinetobacter baumannii [1] it was 0 mm; in the assay on Bacillus anthracis, 26 mm; with Enterococcus faecium, 0 mm. Moreover, the “diameter of the inhibition zone (DIZ)” value with Enterococcus faecalis amounted to 0 mm; in the assay on Staphylococcus aureus [2], 11 mm; in the assay on Staphylococcus aureus [3], 14 mm; in the assay on Staphylococcus aureus [4], 12 mm; in the assay with Staphylococcus aureus [5], 18 mm; in the assay with Staphylococcus aureus [6] it was 0 mm. In addition, the “diameter of the inhibition zone (DIZ)” value is recorded as 0 mm with Staphylococcus aureus [7], 24 mm in [8], 0 mm with Acinetobacter baumannii [9] and 0 mm in the assay on Pseudomonas aeruginosa.
`CCCSSc1ccccn1`: the “diameter of the inhibition zone (DIZ)” value with Klebsiella pneumoniae is listed as 0 mm; in the assay with Enterobacter cloacae it was 9 mm; in the assay with Escherichia coli, 0 mm; in the assay on Acinetobacter baumannii [1], 0 mm; in the assay with Bacillus anthracis it was 33 mm; with Enterococcus faecium it was 0 mm. Further, the “diameter of the inhibition zone (DIZ)” value was 11 mm in the assay with Enterococcus faecalis; 0 mm with Staphylococcus aureus [2]; 0 mm in the assay on Staphylococcus aureus [3]; 0 mm in the assay with Staphylococcus aureus [4]; 0 mm in the assay with Staphylococcus aureus [5]; 0 mm in the assay on Staphylococcus aureus [6]. The “diameter of the inhibition zone (DIZ)” value in the assay on Staphylococcus aureus [7] was found to be 0 mm; in assay [8] it was 30 mm; in the assay on Acinetobacter baumannii [9] it was 12 mm; in the assay with Pseudomonas aeruginosa, 0 mm.
With `CC(C)CCSSc1ccccn1`, the “diameter of the inhibition zone (DIZ)” value is recorded as 0 mm in the assay with Klebsiella pneumoniae; 0 mm with Enterobacter cloacae; 0 mm in the assay on Escherichia coli; 0 mm in the assay on Acinetobacter baumannii [1]; over 50 mm in the assay on Bacillus anthracis; 0 mm with Enterococcus faecium. For the same compound, the “diameter of the inhibition zone (DIZ)” value in the assay on Enterococcus faecalis is listed as 0 mm; in the assay on Staphylococcus aureus [2], 0 mm; with Staphylococcus aureus [3], 0 mm; in the assay with Staphylococcus aureus [4] it was 0 mm; with Staphylococcus aureus [5], 11 mm; in the assay with Staphylococcus aureus [6] it was 12 mm. Also, the “diameter of the inhibition zone (DIZ)” value is on record as 14 mm in the assay with Staphylococcus aureus [7], over 50 mm in [8], 0 mm in the assay with Acinetobacter baumannii [9] and 0 mm in the assay with Pseudomonas aeruginosa.
Turning to `CCSSc1ccccn1`, the “diameter of the inhibition zone (DIZ)” value with Klebsiella pneumoniae was determined as 0 mm; in the assay with Enterobacter cloacae, 10 mm; in the assay with Escherichia coli, 0 mm; in the assay on Acinetobacter baumannii [1] it was 12 mm; in the assay with Bacillus anthracis, 50 mm; with Enterococcus faecium it was 0 mm. The “diameter of the inhibition zone (DIZ)” value with Enterococcus faecalis was 15 mm; in the assay with Staphylococcus aureus [2], 13 mm; in the assay on Staphylococcus aureus [3], 13 mm; with Staphylococcus aureus [4] it was 12 mm; in the assay with Staphylococcus aureus [5], 0 mm; in the assay with Staphylococcus aureus [6], 0 mm. For the same compound, the “diameter of the inhibition zone (DIZ)” value in the assay with Staphylococcus aureus [7] was 0 mm; in assay [8] it was 26 mm; in the assay on Acinetobacter baumannii [9], 18 mm; with Pseudomonas aeruginosa it was 0 mm.
For the compound `CC(C)CSSc1ccccn1`, the “diameter of the inhibition zone (DIZ)” value in the assay with Klebsiella pneumoniae is 0 mm; in the assay with Enterobacter cloacae, 0 mm; with Escherichia coli it was 0 mm; in the assay with Acinetobacter baumannii [1] it was 0 mm; in the assay with Bacillus anthracis, 50 mm; in the assay with Enterococcus faecium, 0 mm. The “diameter of the inhibition zone (DIZ)” value with Enterococcus faecalis, in the assay on Staphylococcus aureus [2], with Staphylococcus aureus [3], in the assay with Staphylococcus aureus [4], in the assay on Staphylococcus aureus [5] and with Staphylococcus aureus [6] was 0 mm in each case. The “diameter of the inhibition zone (DIZ)” value in the assay on Staphylococcus aureus [7] stood at 0 mm; in [8], 40 mm; in the assay with Acinetobacter baumannii [9], 0 mm; in the assay on Pseudomonas aeruginosa, 0 mm.
For `O=C(O)CCSSc1ccccn1`, the “diameter of the inhibition zone (DIZ)” value in the assay on Klebsiella pneumoniae was found to be 0 mm; in the assay with Enterobacter cloacae, 0 mm; in the assay on Escherichia coli, 0 mm; with Acinetobacter baumannii [1], 0 mm; with Bacillus anthracis, 24 mm; in the assay on Enterococcus faecium it was 0 mm. Moreover, the “diameter of the inhibition zone (DIZ)” value in the assay on Enterococcus faecalis came out at 0 mm; in the assay with Staphylococcus aureus [2], 16 mm; in the assay with Staphylococcus aureus [3], 14 mm; with Staphylococcus aureus [4], 14 mm; in the assay with Staphylococcus aureus [5] it was 15 mm; in the assay on Staphylococcus aureus [6] it was 15 mm. Besides, the “diameter of the inhibition zone (DIZ)” value is on record as 21 mm in the assay with Staphylococcus aureus [7], 10 mm in assay [8], 0 mm with Acinetobacter baumannii [9] and 0 mm in the assay on Pseudomonas aeruginosa.
Turning to `CCC(C)SSc1ccccn1` (stereo not given), the “diameter of the inhibition zone (DIZ)” value in the assay with Klebsiella pneumoniae is 0 mm; with Enterobacter cloacae, 0 mm; in the assay on Escherichia coli it was 0 mm; in the assay with Acinetobacter baumannii [1], 0 mm; with Bacillus anthracis it was 23 mm; in the assay on Enterococcus faecium it was 0 mm. The “diameter of the inhibition zone (DIZ)” value in the assay with Enterococcus faecalis, with Staphylococcus aureus [2], in the assay with Staphylococcus aureus [3], in the assay with Staphylococcus aureus [4], with Staphylococcus aureus [5] and with Staphylococcus aureus [6] was 0 mm each time. Moreover, the “diameter of the inhibition zone (DIZ)” value is 0 mm in the assay on Staphylococcus aureus [7], 20 mm in assay [8], 0 mm in the assay on Acinetobacter baumannii [9] and 0 mm in the assay with Pseudomonas aeruginosa.
Regarding `CC(C)C(C)SSc1ccccn1` (stereo not given), the “diameter of the inhibition zone (DIZ)” value was found to be 0 mm in the assay on Klebsiella pneumoniae; 0 mm with Enterobacter cloacae; 0 mm in the assay on Escherichia coli; 0 mm in the assay with Acinetobacter baumannii [1]; 21 mm in the assay with Bacillus anthracis; 0 mm in the assay on Enterococcus faecium. In addition, the “diameter of the inhibition zone (DIZ)” value with Enterococcus faecalis, in the assay with Staphylococcus aureus [2], in the assay with Staphylococcus aureus [3], in the assay with Staphylococcus aureus [4], with Staphylococcus aureus [5] and in the assay on Staphylococcus aureus [6] was 0 mm in each case. Further, the “diameter of the inhibition zone (DIZ)” value in the assay on Staphylococcus aureus [7] came to 0 mm; in [8], 24 mm; in the assay with Acinetobacter baumannii [9], 0 mm; in the assay with Pseudomonas aeruginosa it was 0 mm.
